Experiments:
[1] = test system: Monocytes; test: Chemotaxis assay, monocytes (transwell); format: cell-based; settings: Homo sapiens, Monocyte
Method: (§1) PMNs and monocytes migration was assessed using 1 or 3-μm pore size transwells (Bio-Coat Becton-Dickinson), while lymphocytes by using 5-μm pore size transwells.
(§2) Cells were in RPMI1640, containing 10% heat-inactivated Fetal Calf Serum (FCS) and 20 mM HEPES, pH 7.3, at 2×10^6/ml. 100 μl of cell suspension were added to the top well, and 600 μl of medium, containing chemoaftractants and test compound, were added to the bottom well. Migration was evaluated after 2 h for PMNs and monocytes and after 4 h for lymphocytes. fMLP 10 nM (PMNs and monocytes) and MIP-3β 100 nM (lymphocytes) were utilized as chemoattractants. After fixation with 1.5% glutaraldehyde, migrated cells were counted by fluorescence-activated cell sorting using polystyrene beads (Polyscience) as an internal standard (Campbell J. J. et al. J. Cell. Biol. 134, 255-266, 1996; Laudanna C. et al. J. Biol. Chem. 273, 46, 30306-30315, 1998).
(§3) Results are expressed as percentage of inhibition over control (=100%), and are the mean of three experiments.

[2] = test system: PMNs; test: Chemoattractant-induced rapid adhesion of PMNs to fibrinogen (CR3 ligand); format: cell-based; settings: Homo sapiens
Method: (§4) Adhesion was performed on purified integrin ligands and was evaluated as reported in Constantin G. et al., Immunity, 16, 759-769, 2000. Briefly, primary naïve lymphocytes, polymorphonuclear neutrophils (PMNs) or monocytes were isolated form healthy donors. In other experiments, murine autoreactive T cells were obtained from SJL mice immunized with PLP139-151 as described (Piccio L. et al., J. Immunol. 168, 1940-1949, 2002). Cells were resuspended at 4×10^6/ml in PBS, CaCl2, MgCl2 1 mM, 10% FCS, pH 7.2. Adhesion assays were performed on eighteen well glass slides coated overnight at 4° C. with ligands for CR3 (fibrinogen) or LFA-1 (ICAM-1). 20 μl of cell suspension were added to the wells and stimulated at 37° C. with 5 μl of agonists prior to washing, fixation and computer-assisted enumeration of bound cells.
(§5) Integrin activation was measured as induction of rapid adhesion triggered by the classical chemoattractant N-formyl-L-methionyl-L-leucyl-phenylalanine (fMLP) (100 nM) or by the CC chemokine MIP3β (CCL19, 1 μM). PMNs and monocytes were triggered to adhere to fibrinogen (CR3 ligand); naive human lymphocytes or murine encephalitogenic T cells were triggered to adhere to ICAM-1 (LFA-1 ligand). Triggered adhesion was evaluated after 2 min of stimulation under static conditions. The cells were pretreated at 37° C. for 30-60 min with the indicated concentrations of the test compound. Results are expressed as percentage of inhibition over control (=100%) and are the mean of three experiments in the case of human leukocytes. Results are expressed as mean counts and are the mean counts±S.D of three experiments and are the mean of three experiments in the case of murine encephalitogenic lymphocytes.
(§6) Integrin activation was measured as induction of rapid adhesion triggered by the “classical” chemoattractant fMLP (100 nM) or by the CC chemokine MIP3β(CCL19, 1 μM). PMNs were triggered to adhere to fibrinogen (CR3 ligand); lymphocytes were triggered to adhere to ICAM-1 (LFA-1 ligand).

[3] = test system: PMNs; test: Chemotaxis assay, PMNs (transwell); format: cell-based; settings: Homo sapiens
Method: as §1, §2, §3

[4] = test system: Monocytes; test: Chemoattractant-induced rapid adhesion of monocytes to fibrinogen; format: cell-based; settings: Homo sapiens, Monocyte, read-out: Inhibition of Adhesion (%) Monocytes (fMLP)
Method: as §4, §5

[5] = test system: Lymphocytes; test: Chemokine-induced rapid adhesion of lymphocytes to ICAM-1 (LFA-1 ligand); format: cell-based; settings: Homo sapiens, Lymphocyte
Method: as §4, §5, §6

[6] = test system: endotoxic shock induced by LPS in C57BI/6 male mice; test: Septic shock animal model (LPS-induced endotoxic shock), survival; format: in vivo
From the text: The model is represented by endotoxic shock, the most common type of septic shock in humans.
The septic shock has been induced in 8-10 week-old C57BI/6 male mice (Harlan-Nossan laboratories) by high concentrations of LPS (lipopolysaccharide), that is considered a reliable experimental model for human endotoxic shock (Garrido et al., Acta Chir. Bras., 19, 2004).
LPS from Escherichia coli 0127:B7 (Sigma) was solubilized in PBS containing 2% fetal calf serum (FCS) as a source of “LPS binding protein”, a molecule that increases the endotoxin action. Mice received 37.5 mg/kg LPS/endotoxin intraperitoneally (i.p.). Animals (ten/group) were monitored at least four times daily and survival of animals was determined in control and treated mice (Lowell C. A. et al., PNAS 95, 7580, 1998).
In the preventive study (FIG. 3), control mice received only vehicle, while treated mice received 70 mg/kg i.p. of Compound of Example 1 two hours before the administration of LPS.
In the therapeutic study (FIG. 4), control mice received only vehicle, while treated mice received both 70 mg/kg i.p. of Compound of Example 1 (3 hours after LPS administration) and 10 mg/kg i.v. (intravenously) (12 hours after LPS administration).

[7] = test system: Lymphocytes; test: Chemotaxis assay, lymphocytes (transwell); format: cell-based; settings: Homo sapiens, Lymphocyte
Method: as §1, §2, §3

**Q.** Which results are given for `COC(=O)c1[nH]c2cc(OC)c(OC)cc2c1-c1ccc(OC)cc1` [Example 1]?
**A.** inhibition at 2.5 µM ([1]; [cpd] 2.5 μM, read-out: Inhibition of Chemotaxis (%) Monocytes (fMLP)): 10.5%; inhibition at 5 µM ([1]; [cpd] 5 μM, read-out: Inhibition of Chemotaxis (%) Monocytes (fMLP) (converted)): 15.5%; inhibition at 10 µM ([1]; [cpd] 10 μM, read-out: Inhibition of Chemotaxis (%) Monocytes (fMLP) (converted)): 18.3%; inhibition at 25 µM ([1]; [cpd] 25 μM, read-out: Inhibition of Chemotaxis (%) Monocytes (fMLP) (converted)): 47.4%; inhibition at 50 µM ([1]; [cpd] 50 μM, read-out: Inhibition of Chemotaxis (%) Monocytes (fMLP) (converted)): 46.3%; inhibition at 100 µM ([1]; [cpd] 100 μM, read-out: Inhibition of Chemotaxis (%) Monocytes (fMLP) (converted)): 75.5%; inhibition at 2.5 µM ([2]; [cpd] 2.5 μM, read-out: Inhibition of Adhesion (%) PMNs (fMLP)): 9.4%; inhibition at 5 µM ([2]; [cpd] 5 μM, read-out: Inhibition of Adhesion (%) PMNs (fMLP) (converted)): 56.1%; inhibition at 10 µM ([2]; [cpd] 10 μM, read-out: Inhibition of Adhesion (%) PMNs (fMLP) (converted)): 66.7%; inhibition at 25 µM ([2]; [cpd] 25 μM, read-out: Inhibition of Adhesion (%) PMNs (fMLP) (converted)): 72.9%; inhibition at 50 µM ([2]; [cpd] 50 μM, read-out: Inhibition of Adhesion (%) PMNs (fMLP) (converted)): 79%; inhibition at 100 µM ([2]; [cpd] 100 μM, read-out: Inhibition of Adhesion (%) PMNs (fMLP) (converted)): 94.2%; inhibition at 2.5 µM ([3]; [cpd] 2.5 μM, read-out: Inhibition of Chemotaxis (%) PMNs (fMLP)): 14.6%; inhibition at 5 µM ([3]; [cpd] 5 μM, read-out: Inhibition of Chemotaxis (%) PMNs (fMLP) (converted)): 28.2%; inhibition at 10 µM ([3]; [cpd] 10 μM, read-out: Inhibition of Chemotaxis (%) PMNs (fMLP) (converted)): 34%; inhibition at 25 µM ([3]; [cpd] 25 μM, read-out: Inhibition of Chemotaxis (%) PMNs (fMLP) (converted)): 40.6%; inhibition at 50 µM ([3]; [cpd] 50 μM, read-out: Inhibition of Chemotaxis (%) PMNs (fMLP)): 46.4%; inhibition at 100 µM ([3]; [cpd] 100 μM, read-out: Inhibition of Chemotaxis (%) PMNs (fMLP) (converted)): 62.6%; inhibition at 2.5 µM ([4]; [cpd] 2.5 μM): < 5%; inhibition at 5 µM ([4]; [cpd] 5 μM): < 5%; inhibition at 10 µM ([4]; [cpd] 10 μM): < 5%; inhibition at 25 µM ([4]; [cpd] 25 μM): < 5%; inhibition at 50 µM ([4]; [cpd] 50 μM): < 5%; inhibition at 100 µM ([4]; [cpd] 100 μM): < 5%; inhibition at 2.5 µM ([5]; [cpd] 2.5 μM, read-out: Inhibition of Adhesion (%) Lymphocytes (MIP3-β)): 32.4%; inhibition at 5 µM ([5]; [cpd] 5 μM, read-out: Inhibition of Adhesion (%) Lymphocytes (MIP3-β) (converted)): 41.2%; inhibition at 10 µM ([5]; [cpd] 10 μM, read-out: Inhibition of Adhesion (%) Lymphocytes (MIP3-β) (converted)): 42.6%; inhibition at 25 µM ([5]; [cpd] 25 μM, read-out: Inhibition of Adhesion (%) Lymphocytes (MIP3-β) (converted)): 60.8%; inhibition at 50 µM ([5]; [cpd] 50 μM, read-out: Inhibition of Adhesion (%) Lymphocytes (MIP3-β) (converted)): 61.8%; inhibition at 100 µM ([5]; [cpd] 100 μM, read-out: Inhibition of Adhesion (%) Lymphocytes (MIP3-β) (converted)): 98.6%; survival, therapeutic study ([6]; 70 mg/kg i.p. 3 hours and 10 mg/kg i.v. 12 hours after LPS, at 52 hours, control survival 0%): 40%; mortality, preventive study ([6]; 70 mg/kg i.p. two hours before LPS, at 90 hours, control mortality 100%): 20%; survival, preventive study ([6]; 70 mg/kg i.p. two hours before LPS, at 90 hours, control survival 0%): 80%; inhibition at 2.5 µM ([7]; [cpd] 2.5 μM, read-out: Inhibition of Chemotaxis (%) Lymphocytes (MIP3-β)): 11.6%; inhibition at 5 µM ([7]; [cpd] 5 μM, read-out: Inhibition of Chemotaxis (%) Lymphocytes (MIP3-β) (converted)): 27.2%; inhibition at 10 µM ([7]; [cpd] 10 μM, read-out: Inhibition of Chemotaxis (%) Lymphocytes (MIP3-β) (converted)): 43.2%; inhibition at 25 µM ([7]; [cpd] 25 μM, read-out: Inhibition of Chemotaxis (%) Lymphocytes (MIP3-β) (converted)): 53.3%; inhibition at 50 µM ([7]; [cpd] 50 μM, read-out: Inhibition of Chemotaxis (%) Lymphocytes (MIP3-β) (converted)): 63.5%; inhibition at 100 µM ([7]; [cpd] 100 μM, read-out: Inhibition of Chemotaxis (%) Lymphocytes (MIP3-β) (converted)): 86.9%

— patent US20080317857A1, “V-Atpase Inhibitors of Use in the Treatment of Septic Shock” (Brane Discovery S.r.l., priority 2005, published 2008)
